Entries after “also recorded” stand apart in the source; their conditions may differ.
Tests used:
Type in all cases: cell-based, human
[1] = system: in vitro hNMJ culture (myotubes); assay: Calcium imaging of in vitro hNMJ; conditions: day 20 of NMJ differentiation, Ca imaging at five ROIs
Method: MyoD-201B7 cells were seeded at a density of 2.2×10^4 cells/well and differentiated into NMJs in a Costar 96-well black-wall/clear-bottom plate. On day 20, the growth medium was removed, and 100 μL Fluo-8 recording medium was added to the cells at 37° C. for 1 hour. The cells were washed twice with PBS and then imaged on In Cell Analyzer 2000. The fluorescence intensity was expressed as the F/F0 ratio.
MyoD-201B7 cells were seeded onto a Matrigel-coated, 96-well black-wall/clear-bottom plate at a density of 2.2×10^4 cells/well. Half of the medium in each well was exchanged every day until the cultures started contracting. The growth medium was removed, and cells were loaded with 100 μL Fluo-8 recording medium at 37° C. for 1 hour. The cells were washed twice with PBS and then the differentiation medium was added to the wells. Ca oscillations were monitored with the FDSS microplate reader, data points were collected at 1-minute intervals, and the data points were analyzed using FDSS software for frequency and amplitude quantification.

[2] = system: in vitro hNMJ culture (myotubes); assay: Motion vector analysis of myotube contraction in in vitro hNMJ; conditions: day 20 of NMJ differentiation
Method: (§1) MyoD-201B7 strain was subjected to myogenic differentiation according to the procedure described in Tanaka et al., PLOS ONE 2013. Specifically, MyoD-201B7 cells were seeded on a Matrigel-coated plate, and myogenic differentiation was induced by adding 1 μg/mL of doxycycline to myogenic differentiation medium (10% KSR+αMEM). Ten days after the addition of doxycycline, neural differentiation was induced by changing the medium to Neurobasal medium supplemented with neurotrophic factors (BDNF, GDNF, and NT3; 10 ng/ml each, R&D Systems). The medium was then replaced every 3 to 4 days to continue culturing.
Using α7s ILCE-7S (Sony Corporation), phase-contrast images using a red-filtered optical source and fluorescence (Fluo8, green) were continuously captured at 15 fps. Using the SI8000 Cell Motion Imaging System (Sony Corporation), which provides motion vector analysis based on the block matching method, motion quantification with the red-separated images in regions of interest (ROIs) and brightness analysis with the green-separated images were performed.
Both moving image capture and motion analysis were performed at 38 fps using the SI8000 Cell Motion Imaging System (Sony Corporation).

[3] = system: in vitro hNMJ culture; assay: Contribution of agrin to the in vitro NMJ system (NMJ area, TEM); conditions: long-term culture
Method: as §1
NMJ cultures were pre-fixed in 2% paraformaldehyde and 2% glutaraldehyde in 0.1 M phosphate buffer (pH 7.4) at 4° C. overnight. Post-fixation was done in 1% osmium tetroxide solution for 1 hour at room temperature. The samples were dehydrated in ethanol (30%, 50%, 70%, 90%, 95%, and 100%) and embedded in Epon resin. Ultrathin sections (80 nm) were cut and stained with uranyl acetate and alkaline lead citrate. The specimens were examined with a transmission electron microscope (H-7650, Hitachi, Ltd.).
Image analysis and quantification were performed by MetaMorph software (Molecular Devices, LLC. USA).

[4] = system: hNMJ culture expressing ChR2-EYFP; assay: Motion analysis of in vitro hNMJ culture by photoactivation (ChR2-EYFP); conditions: day 100 of NMJ differentiation
Method: The plasmid deposited at Addgene by Karl Deisseroth was purchased and used as a plasmid containing a photoactivation domain (pLenti-Synapsin-hChR2 (H134R)-EYFP-WPRE, Addgene plasmid number 20945). The lentivirus transduction system (ViraPower hiperform lentivirus expression system, Invitrogen) was used to transduce the target gene into neural cells. NMJ cultures were treated with virus-containing medium at 37° C. for 48 hours with 5% CO2. After virus infection, the medium was removed and the Neurobasal medium was added for target gene expression. The medium was changed every 3 to 4 days. EYFP expression was examined by confocal microscopy with proper optical settings. Photoactivation was performed with at 488-nm laser wavelength. In addition to EYFP signals, bright-field images were captured simultaneously for muscle movement analysis.

Molecule: [Ca+2] [Ca^2+, calcium]
- excitation of myotubes (transient Ca2+ elevation) [1]: enhanced

Molecule: O=C1CN(/N=C/c2ccc(-c3ccc([N+](=O)[O-])cc3)o2)C(O)=N1 [dantrolene]
- spontaneous synchronized contraction-like movement of myotubes [2]: inhibited

Molecule: agrin
- area of the NMJ (ratio of NMJ region) [3]: increased
- morphology of myotubes and axon terminals by TEM [3]: Myotube was well confined at fold of junction that bounds axon terminal

Molecule: curare
- muscle contraction triggered by blue light (488 nm) [4]: inhibited
- excitation of myotubes (transient Ca2+ elevation) [1]: reduced; also recorded: stopped

Reference: patent US20210363496A1, “METHOD FOR OBTAINING ARTIFICIAL NEUROMUSCULAR JUNCTION FROM PLURIPOTENT STEM CELLS” (KYOTO UNIVERSITY, priority 2017, published 2021)
